# Laboratory results from US8541476B2, “Compounds for treatment of malignant tumors” (The Trustees of the University of Pennsylvania, priority 2007, dated 2013).
# Assays:
# [1] = system: γ-H2AX, P-CHK2, P-ATM, P-DNA-PKcs in U251 cells; assay: Immunoblotting of dsDNA damage-dependent signaling after IR; type: cell-based, human; conditions: U251, 30 μM 4 hours prior to IR, 6 hours after IR
# Experimental: Following treatments, whole cell and nuclear extracts were prepared. Equal lysate volumes were loaded on 15% and 12% SDS-PAGE gels to assay for γ-H2AX and P-CHK2 proteins, respectively. To assay for P-ATM and P-DNA-PKcs protein, 30-50 μg of nuclear protein were diluted with an equal volume of 2×SDS and resolved with 6% SDS-PAGE gels. Proteins were transferred to polyvinylidene difluoride (PVDF) membranes and then incubated with either anti-γ-H2AX antibody (1:5000; Upstate, Charlottesville, Va.), anti-P-CHK2 antibody (1:1000; Cell Signaling, Beverly, Mass.), anti-phospho-ATM (pSer^1981) antibody (1:300 Calbiomchem, San Diego, Calif.), or anti-phospho-DNA-PKcs (T2609) antibody (1:500; Abcam, Cambridge, Mass.). To confirm equivalent loading and protein transfer, membranes were probed with mouse anti-human β-actin monoclonal antibody (Sigma) or anti-DNA-PKcs monoclonal antibody (25-4 at 1:5000; NeoMarkers, Fremont, Calif.). All membranes were then incubated with horseradish peroxidase-conjugated anti-mouse or anti-rabbit secondary antibodies (Santa Cruz Biotechnology). Immunoreactive bands were detected using ECL Plus chemiluminescence (Amersham Biosciences).
# The levels of γ-H2AX, P-CHK2, P-ATM, and P-DNA-PKcs were assayed in U251 cells by immunoblotting at various time points after IR. Cells were treated with DMSO (control) or 30 μM NS-123 for 4 hours prior to IR. […]
# [2] = system: dsDNA break repair in U251 cells; assay: DSB measurement by PFGE and number average length analysis; type: cell-based, human; conditions: U251, 30 μM 4 hours, 4 Gy
# Experimental: Cells were treated with 30 μM NS-123 or DMSO alone. Four hours later, the cells were either sham-irradiated, or irradiated with 4 Gy of ^137Cs γ-rays (Radiation Facility, Brody School of Medicine, ECU) at the dose rate of 0.57 Gy/min and placed immediately at 37° C. in fresh medium without NS-123 and harvested at different repair times up to 24 hours. No significant changes in the percentage of dead cells were detected by trypan blue exclusion as a result of irradiation. […] A DNA dispersion curve relating DNA length to electrophoretic mobility, based on all length standards was determined from an analytical mobility function as previously described using number average length analysis (NALA) (Seo, et al., 2005, Clin. Cancer Res. 11:7499-507).
# As a first step in understanding the mechanism of the radiosensitizing activity of NS-123, the processing of DSBs in U251 cells treated with 30 μM NS-123 or DMSO (control) was measured using an adaptation of PFGE. […] Therefore, a 4 hour, 30 μM NS-123 treatment for experiments analyzing the effects of NS-123 on DSB repair and immunoblotting was used (see below) which require a significant quantity of cells. […]
smiles,measurement,setting,value
"CCC(=O)c1ccc(Br)c([N+](=O)[O-])c1 [NS-123, 4′-bromo-3′-nitropropiophenone]","levels of γ-H2AX, P-CHK2, P-DNA-PKcs and P-ATM",[1],substantially higher levels
same,initial number of dsDNA breaks,[2],88.5±5.3 DSBs/Gbp
same,residual DSB damage compared to initial levels,[2]; 24 hours repair,~25%
